Structures can show the parent of a compound that is named as a salt.
Molecular target: T1, LFA-1 binding to immobilized ICAM-1 (Homo sapiens, UniProt P05107+P20701)
T1 construct: made in house; host or cells: transfected 293 cells (LFA-1)
Test: LFA-1/ICAM-1 protein-protein assay (solid-phase ELISA)
Settings: read-out: LFA-1/ICAM-1 Protein-Protein Assay IC50
Summary of the method: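 Human 5dICAM-Ig (ICAM-1 extracellular domain–IgG Fc) coated on plates; membrane-bound LFA-1 from transfected 293 cells (280 ng/mL) added with compound in Mn2+-containing HEPES buffer pH 7.2, 2 h at 37° C. Bound LFA-1 detected via anti-β2 antibody and HRP/TMB at 450 nm; IC50s determined.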

T1 sequence (P20701 26-1170): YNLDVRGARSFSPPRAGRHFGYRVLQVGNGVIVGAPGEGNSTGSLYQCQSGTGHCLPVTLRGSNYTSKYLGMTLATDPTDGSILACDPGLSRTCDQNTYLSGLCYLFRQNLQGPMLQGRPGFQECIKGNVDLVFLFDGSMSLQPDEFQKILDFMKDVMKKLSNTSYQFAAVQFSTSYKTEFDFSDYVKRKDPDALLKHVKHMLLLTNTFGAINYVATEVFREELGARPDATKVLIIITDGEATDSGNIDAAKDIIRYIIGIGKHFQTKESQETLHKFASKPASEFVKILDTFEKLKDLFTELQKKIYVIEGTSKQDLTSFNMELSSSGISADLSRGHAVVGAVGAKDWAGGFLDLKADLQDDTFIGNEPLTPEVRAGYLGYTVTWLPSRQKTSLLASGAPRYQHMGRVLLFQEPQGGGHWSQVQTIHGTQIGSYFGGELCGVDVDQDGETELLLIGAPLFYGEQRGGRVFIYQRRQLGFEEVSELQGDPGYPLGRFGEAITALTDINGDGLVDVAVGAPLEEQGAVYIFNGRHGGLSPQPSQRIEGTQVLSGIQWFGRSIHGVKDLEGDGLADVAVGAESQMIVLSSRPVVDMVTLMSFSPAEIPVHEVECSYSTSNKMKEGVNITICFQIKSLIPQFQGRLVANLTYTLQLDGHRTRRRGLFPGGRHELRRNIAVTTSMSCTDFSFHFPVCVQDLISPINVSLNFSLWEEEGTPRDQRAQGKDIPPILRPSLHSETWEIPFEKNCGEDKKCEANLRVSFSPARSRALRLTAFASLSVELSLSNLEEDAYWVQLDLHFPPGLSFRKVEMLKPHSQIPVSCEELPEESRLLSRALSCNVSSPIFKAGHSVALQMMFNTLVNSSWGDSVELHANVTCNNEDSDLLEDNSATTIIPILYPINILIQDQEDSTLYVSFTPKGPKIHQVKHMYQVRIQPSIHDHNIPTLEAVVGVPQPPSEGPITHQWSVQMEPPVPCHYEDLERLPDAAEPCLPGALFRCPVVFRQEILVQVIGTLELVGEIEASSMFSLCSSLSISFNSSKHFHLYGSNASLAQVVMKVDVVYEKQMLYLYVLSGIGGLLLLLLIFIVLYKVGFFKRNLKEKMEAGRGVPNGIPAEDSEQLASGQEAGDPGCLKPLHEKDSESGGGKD
T1 sequence (P05107 23-769): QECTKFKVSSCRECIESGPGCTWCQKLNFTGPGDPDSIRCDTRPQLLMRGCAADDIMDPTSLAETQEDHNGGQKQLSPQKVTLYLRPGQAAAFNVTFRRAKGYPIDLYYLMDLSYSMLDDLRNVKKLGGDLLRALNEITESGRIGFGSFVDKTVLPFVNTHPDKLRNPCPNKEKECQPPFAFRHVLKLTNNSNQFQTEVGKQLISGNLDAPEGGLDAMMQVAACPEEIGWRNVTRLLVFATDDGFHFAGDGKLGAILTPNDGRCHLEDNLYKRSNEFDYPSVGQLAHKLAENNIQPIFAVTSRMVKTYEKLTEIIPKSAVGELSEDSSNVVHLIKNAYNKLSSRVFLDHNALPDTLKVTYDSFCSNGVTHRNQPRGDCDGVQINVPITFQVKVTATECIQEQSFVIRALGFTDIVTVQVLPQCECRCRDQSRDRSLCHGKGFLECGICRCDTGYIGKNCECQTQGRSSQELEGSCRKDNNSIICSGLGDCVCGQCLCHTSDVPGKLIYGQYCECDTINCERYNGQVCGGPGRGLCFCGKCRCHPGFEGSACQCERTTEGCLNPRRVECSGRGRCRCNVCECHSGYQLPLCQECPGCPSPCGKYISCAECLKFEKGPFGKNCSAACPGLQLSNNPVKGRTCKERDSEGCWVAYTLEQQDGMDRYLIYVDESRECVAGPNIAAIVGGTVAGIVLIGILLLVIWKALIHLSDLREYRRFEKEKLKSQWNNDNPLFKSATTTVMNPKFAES

Row | Structure (SMILES) | IC50 [nM]
1 | O=C(NCc1cccc(O)c1)c1ccc(C(=O)N[C@@H](CNC(=O)c2ccoc2)C(=O)O)c(Cl)c1 [Example 259, N-[2-chloro-4-[[[(3-hydroxyphenyl)methyl]amino]carbonyl]benzoyl]-3-(furan-3-carbonyl)amino-L-alanine] | 1.2
2 | NCCCC(=O)NC[C@H](NC(=O)c1ccc(C(=O)NCc2cccc(O)c2)cc1Cl)C(=O)O [Example 261, N-[2-chloro-4-[[[(3-hydroxyphenyl)methyl]amino]-carbonyl]benzoyl]-3-(4-aminobutanoylamino)-L-alanine] | 2.2
3 | O=C(NCc1cccc(O)c1)c1ccc(C(=O)N[C@@H](CNC(=O)C2CCNCC2)C(=O)O)c(Cl)c1 [Example 262] | 4.8
4 | NC1(C(=O)NC[C@H](NC(=O)c2ccc(C(=O)NCc3cccc(O)c3)cc2Cl)C(=O)O)CCCC1 [Example 263] | 4.2
5 | N[C@H]1CC[C@@H](C(=O)NC[C@H](NC(=O)c2ccc(C(=O)NCc3cccc(O)c3)cc2Cl)C(=O)O)CC1 [Example 264] | 4.6
6 | Nc1cccn(CC(=O)NC[C@H](NC(=O)c2ccc(C(=O)NCc3cccc(O)c3)cc2Cl)C(=O)O)c1=O [Example 266] | 4.6
7 | O=C(O)c1cccc(C(=O)NC[C@H](NC(=O)c2ccc(C(=O)NCc3cccc(O)c3)cc2Cl)C(=O)O)c1 [Example 297] | 0.8
8 | O=C(O)CCCC(=O)NC[C@H](NC(=O)c1ccc(C(=O)NCc2cccc(O)c2)cc1Cl)C(=O)O [Example 298] | 4.8
9 | O=C(NCc1cccc(O)c1)c1ccc(C(=O)N[C@@H](CNC(=O)c2ccccc2)C(=O)O)c(Cl)c1 [Example 302, 3-benzoylamino-N-[2-chloro-4-[[[(3-hydroxyphenyl)methyl]amino]carbonyl]benzoyl]-L-alanine] | 0.9
10 | O=C(NCc1cccc(O)c1)c1ccc(C(=O)N[C@@H](CNC(=O)c2cccs2)C(=O)O)c(Cl)c1 [Example 303, N-[2-chloro-4-[[[(3-hydroxyphenyl)methyl]amino]carbonyl]benzoyl]-3-(thiophene-2-carbonyl)amino-L-alanine] | 0.5
11 | O=C(NCc1cccc(O)c1)c1ccc(C(=O)N[C@@H](CNC(=O)c2cccs2)C(=O)O)c(Cl)c1 [Example 305, N-[2-chloro-4-[[[(3-hydroxyphenyl)methyl]amino]carbonyl]benzoyl]-3-(thiophene-2-carbonyl)amino-L-alanine, sodium salt] | 1
12 | O=C(NCc1cccc2[nH]ccc12)c1ccc(C(=O)N[C@@H](CNC(=O)c2ccccc2)C(=O)O)c(Cl)c1 [Example 314, 3-(benzoylamino)-N-[2-chloro-4-[[(1H-indol-4-ylmethyl)amino]carbonyl]benzoyl]-L-alanine] | 1.9
13 | O=C(NCc1cccc2[nH]ccc12)c1ccc(C(=O)N[C@@H](CNC(=O)c2ccoc2)C(=O)O)c(Cl)c1 [Example 316] | 1.3
14 | Cc1ccc(C(=O)NC[C@H](NC(=O)c2ccc(C(=O)NCc3cccc4[nH]ccc34)cc2Cl)C(=O)O)s1 [Example 317] | 3.5
15 | O=C(NCc1cccc2c1CCN2)c1ccc(C(=O)N[C@@H](CNC(=O)c2cccs2)C(=O)O)c(Cl)c1 [Example 318, 3-(thiophene-2-carbonyl)amino-N-[2-chloro-4-[[(2,3-dihydro-1H-indol-4-ylmethyl)amino]carbonyl]benzoyl]-L-alanine] | 1.9
16 | O=C(CCc1cccc(O)c1)c1ccc(C(=O)N[C@@H](CNC(=O)c2cccs2)C(=O)O)c(Cl)c1 [Example 319, N-[2-chloro-4-[1-oxo-3-(3-hydroxyphenyl)propyl]benzoyl]-3-(thiophene-2-carbonyl)amino-L-alanine] | 1.4
17 | O=C(NC[C@H](NC(=O)c1ccc(-n2nnnc2NCc2cccc(O)c2)cc1Cl)C(=O)O)c1cccs1 [Example 321] | 2.6

Row | Structure (SMILES) | IC50 [nM]
18 | O=C(NCc1cccc2[nH]cnc12)c1ccc(C(=O)N[C@@H](CNC(=O)c2cccs2)C(=O)O)c(Cl)c1 [Example 322] | 8.5
19 | Cc1cc(C(=O)NCc2cccc(O)c2)ccc1C(=O)N[C@@H](CNC(=O)c1cccs1)C(=O)O [Example 323] | 1.3
20 | O=C(NCc1cccc2[nH]ncc12)c1ccc(C(=O)N[C@@H](CNC(=O)c2cccs2)C(=O)O)c(Cl)c1 [Example 327, N-[2-chloro-4-[[[(1H-indazol-4-yl)methyl]amino]carbonyl]benzoyl]-3-(thiophene-2-carbonyl)amino-L-alanine] | 1.8
21 | O=C(NCc1cccc2[nH]ccc12)c1ccc(C(=O)N[C@@H](CNC(=O)c2cccs2)C(=O)O)c(Br)c1 [Example 329] | 2.7
22 | Cc1cc(C(=O)NCc2cccc(O)c2)cc(C)c1C(=O)N[C@@H](CNC(=O)c1cccs1)C(=O)O [Example 330] | 1.4
23 | C[C@@H](NC(=O)c1ccc(C(=O)N[C@@H](CNC(=O)c2cccs2)C(=O)O)c(Br)c1)c1cccc2ccccc12 [Example 332] | 4.8
24 | Cc1cc(C(=O)N[C@H](C)c2cccc3ccccc23)cc(C)c1C(=O)N[C@@H](CNC(=O)c1cccs1)C(=O)O [Example 333] | 3.5
25 | Nc1cccc(CNC(=O)c2ccc(C(=O)N[C@@H](CNC(=O)c3cccs3)C(=O)O)c(Br)c2)c1 [Example 334, N-[4-[[[(3-aminophenyl)methyl]amino]carbonyl]-2-bromobenzoyl]-3-(thiophene-2-carbonyl)amino-L-alanine] | 3
26 | Cc1cc(C(=O)NCc2cccc(O)c2)cc(C)c1C(=O)N[C@@H](CNC(=O)c1ccsc1)C(=O)O [Example 336, N-[2,6-dimethyl-4-[[[(3-hydroxyphenyl)methyl]amino]carbonyl]benzoyl]-3-(thiophene-3-carbonyl)amino-L-alanine] | 2.1
27 | Cc1cc(C(=O)NCc2cccc(O)c2)cc(C)c1C(=O)N[C@@H](CNC(=O)c1cc(F)cc(F)c1)C(=O)O [Example 337, N-[2,6-dimethyl-4-[[[(3-hydroxyphenyl)methyl]amino]carbonyl]benzoyl]-3-(3,5-difluorobenzoylamino)-L-alanine] | 3.7
28 | Cc1cc(C(=O)NCc2cccc(O)c2)cc(Cl)c1C(=O)N[C@@H](CNC(=O)c1cccs1)C(=O)O [Example 338, N-[2-chloro-4-[[[(3-hydroxyphenyl)methyl]amino]carbonyl]-6-methylbenzoyl]-3-[(thiophene-2-carbonyl)amino]-L-alanine] | 1.5
29 | Cc1cc(C(=O)NCc2cccc(O)c2)cc(Cl)c1C(=O)N[C@@H](CNC(=O)c1ccsc1)C(=O)O [Example 339, N-[2-chloro-4-[[[(3-hydroxyphenyl)methyl]amino]carbonyl]-6-methylbenzoyl]-3-[(thiophene-3-carbonyl)amino]-L-alanine] | 1.7
30 | Cc1cc(C(=O)NCc2cccc(O)c2)cc(Cl)c1C(=O)N[C@@H](CNC(=O)c1cc(F)cc(F)c1)C(=O)O [Example 340, N-[2-chloro-4-[[[(3-hydroxyphenyl)methyl]amino]carbonyl]-6-methylbenzoyl]-3-[(3,5-difluorobenzoyl)amino]-L-alanine] | 0.3
31 | O=C(NCc1cccc(O)c1)c1cc(Cl)c(C(=O)N[C@@H](CNC(=O)c2cccs2)C(=O)O)c(Cl)c1 [Example 342, N-[2,6-dichloro-4-[[[(3-hydroxyphenyl)methyl]amino]carbonyl]benzoyl]-3-[(thiophene-2-carbonyl)amino]-L-alanine] | 1.6
32 | O=C(NCc1cccc(O)c1)c1cc(Cl)c(C(=O)N[C@@H](CNC(=O)c2ccsc2)C(=O)O)c(Cl)c1 [Example 343, N-[2,6-dichloro-4-[[[(3-hydroxyphenyl)methyl]amino]carbonyl]benzoyl]-3-[(thiophene-3-carbonyl)amino]-L-alanine] | 2.5
33 | O=C(NCc1cccc(O)c1)c1cc(Cl)c(C(=O)N[C@@H](CNC(=O)c2cc(F)cc(F)c2)C(=O)O)c(Cl)c1 [Example 344, N-[2,6-dichloro-4-[[[(3-hydroxyphenyl)methyl]amino]carbonyl]benzoyl]-3-[(3,5-difluorobenzoyl)amino]-L-alanine] | 0.3
34 | O=C(NCc1cccc(O)c1)c1cc(Cl)c(C(=O)N[C@@H](CNC(=O)c2cc(O)cc(O)c2)C(=O)O)c(Cl)c1 [Example 345, N-[2,6-dichloro-4-[[[(3-hydroxyphenyl)methyl]amino]carbonyl]benzoyl]-3-(3,5-dihydroxybenzoylamino)-L-alanine] | 0.2
